The subject of the assay is MTB specific T CD4+ lymphocytes. In kind it is cell-based, human. The note with it: for positive tests / evaluable subjects: Microbiologically checked TB patients (before therapy start) / positive tests / evaluable subjects: Recently MTB exposed subjects: anergic subjects excluded.

Where two headings read alike, the source gives them in different places.

With “RPVRRVLLFVVPSSGPAP (listed as Mycobacterium tuberculosis) [Peptide #4, peptide of Rv3479]”, the “positive tests / evaluable subjects: BCG-vaccinated controls” value is 0/15, the “positive tests / evaluable subjects: Microbiologically checked TB patients (before therapy start)” value is recorded as 10/55, the “positive tests / evaluable subjects: Recently MTB exposed subjects” value is on record as 13/61 and the “positive tests / evaluable subjects: Sanitary workers” value is reported as 6/21.
For the substance “AVIVRSELLTQYL (listed as Mycobacterium tuberculosis) [Peptide #2, peptide of Rv1251c]”, the “positive tests / evaluable subjects: Microbiologically checked TB patients (before therapy start)” value was 11/55, the “positive tests / evaluable subjects: Recently MTB exposed subjects” value is 8/61 and the “positive tests / evaluable subjects: Sanitary workers” value is 1/21. The “positive tests / evaluable subjects: BCG-vaccinated controls” value (BCG-vaccinated controls) was 0/15.
For “GEIIFISGRLNGaa (GEIIFISGRLNGAA; listed as Mycobacterium tuberculosis) [Peptide #5, peptide of Rv0724A]” the same measures were 18/55, 11/61, 5/21 and 0/15.
For “ELMARAAVLGSAH (listed as Mycobacterium tuberculosis) [Peptide #6, peptide of Rv1251c]” the same measures were 14/55, 6/61, 3/21 and 0/15.
Turning to “GSVRQLPSVLKPPLITLRTLTLSG (listed as Mycobacterium tuberculosis) [Peptide #3, peptide of Rv3479]”, the “positive tests / evaluable subjects: BCG-vaccinated controls” value was 0/15, the “positive tests / evaluable subjects: Microbiologically checked TB patients (before therapy start)” value is 27/55, the “positive tests / evaluable subjects: Recently MTB exposed subjects” value is on record as 20/61 and the “positive tests / evaluable subjects: Sanitary workers” value is 7/21. Also, the “sensitivity compared with ESAT-6 derived control peptide” value (result in words) was “elevated sensitivity comparable, if not more elevated, to multiepitope ESAT-6 protein derived control peptide”.
Regarding “TAWITAVVPGLMV (listed as Mycobacterium tuberculosis) [Peptide #1, peptide of Rv1478 (Consensus VIR)]”, the “positive tests / evaluable subjects: BCG-vaccinated controls” value was 0/15, the “positive tests / evaluable subjects: Microbiologically checked TB patients (before therapy start)” value is given as 12/55, the “positive tests / evaluable subjects: Recently MTB exposed subjects” value is 14/61 and the “positive tests / evaluable subjects: Sanitary workers” value is recorded as 6/21.

The values above are taken from patent US11275086B2 (priority 2010, dated 2022).
